Measured values reported in PMC12380353, “MK-8527 is a novel inhibitor of HIV-1 reverse transcriptase translocation with potential for extended-duration dosing” (PLOS Biology, 2025).
Several values for one entry are separate records, joined by “and”; a condition that tells them apart may be missing. Identical values can stand only once. Like-named read-outs stand apart in the source and are kept apart here.

Experiments:
[1] = PK in rhesus monkeys (plasma); type: in vivo
Experimental: For the IV arm of the study, MK-8527 was administered as a bolus via the cephalic vein at 0.5 mg/kg in 30% Captisol (Ligand Pharmaceuticals, Lawrence, KS, USA). […] After the 6-h time point, they were returned to their cages and placed in a bleed chair for the subsequent time points. No anesthesia was used. As enrichment, animals were pair housed with conspecifics in cages with […]. […] Animals were fed certified primate diet (LabDiet 5048) and given a vitamin C supplement daily. In addition, animals received rotational fruit and vegetables as well as a foraging mix daily. All blood samples were centrifuged at 2,000g for 10 min, and the supernatant plasma samples were removed and stored at -70 °C until further analysis. The concentrations of MK-8527 in plasma were determined by LC-MS/MS assays following a protein precipitation step. Aliquots (50 μL) of plasma were precipitated by addition of 150 μL of acetonitrile solution-containing internal standard (IS), followed by centrifugation at 3,000 rpm for 10 min. A 75-μL aliquot of the supernatant was transferred into a 96-well plate, and 5 μL of each sample was used for analysis. LC-MS/MS analysis was performed on a Transcend LC system with HTS PAL CTC autosampler (Thermo Fisher Scientific, Waltham, MA, USA) interfaced to an API-5000 mass spectrometer using the turbo ion spray interface (Sciex, Framingham, MA, USA). Separation of MK-8527 was achieved on an Xselect HSS XP T3 column (50 × 2.1 mm, 2.5 μm; […] The chromatography for plasma samples was run using gradient elution as follows: the column was equilibrated with 100% A. […] The total run time was 4.15 min. Quantification was done by monitoring the transition of m/z 309 to m/z 169 or 133 for MK-8527. The method was linear across a concentration range of 2-10,000 ng/mL in plasma.

HIV RT = target: T1, HIV RT (Human immunodeficiency virus type 1 group M subtype B, UniProt P04585); assay: Iron footprinting assay of RT translocation state; type: biochemical
T1 construct: HIV RT (final concentration, 1,200 nM)
Experimental: The translocation state of RT was assessed with a site-specific iron footprinting assay adapted from previous work. Primer and template used for this assay are described in Fig 7A. The presence of Fe^2+ ions in the reaction generated hydroxyl radicals that cleaved the DNA template in a site-specific manner at the nucleotide closest to the RNase H active site. In addition to an RT inhibitor in the reaction, dTTP, the subsequent dNTP, was provided in dose titration to force the translocation of the 3′-primer terminus from the pre-translocation N-site to the post-translocation P-site.
(final concentration, 1 µM), or ddATP (final concentration, 5 µM), Td43/Pd30 pre-annealed primer and template (final concentration, 200 nM based on Cy3-labeled Td43 concentration), and dTTP titrated at various concentrations. All reagent stocks were in a base assay buffer consisting of 120 mM Tris pH 7.5, 20 mM NaCl, and 6 mM MgCl2 in nuclease-free water. […] The reaction was then heated to 37 °C for 5 min before quenching 1:1 with gel-loading dye followed by heating at 95 °C for 10 min. Samples were stored at −20 °C until being resolved by polyacrylamide gel electrophoresis with 7 M urea.

human DNA polymerase β = human DNA polymerase β (Homo sapiens, UniProt P06746); assay: Human DNA polymerase β inhibition assay; type: biochemical; details: highest concentration tested 200 µM
Experimental: The activities of human DNA polymerases α, β, and γ were measured in radiolabeled nucleotide incorporation assays. TP was prepared as a 10-point titration with 3-fold serial dilution in water. Reaction buffers for the DNA polymerase α and β assays both contained 20 mM Tris pH 7.5, 10 mM MgCl2, 50 μM EDTA, 200 μg/mL bovine serum albumin (BSA), 2 mM dithiothreitol (DTT), 1.6 μM each of dNTP (dATP, dCTP, dGTP, and dTTP), 20 μCi/mL [α33P]dATP, 0.1 mg/mL gapped activated fish sperm DNA template, test compound, and 0.005 U/μL DNA polymerase α or 0.0025 U/μL DNA polymerase β. The reaction buffer for DNA polymerase γ contained 20 mM Tris pH 8, 10 mM MgCl2, 50 mM KCl, 100 μg/mL BSA, 2 mM β-mercaptoethanol, 10 μM of each dNTP (dATP, dCTP, dGTP, and dTTP), 20 μCi/mL [α33P]dATP, 0.04 mg/mL gapped activated fish sperm DNA template, test compound, and 0.0003 μg/μL DNA polymerase γ. The 50-μL reactions were incubated at room temperature for 30 min (for β and γ) or 90 min (for α) before terminating with the addition of 50 μL 500 mM EDTA. The reaction mixtures were transferred to a Millipore DE81 filter plate (EMD Millipore; Hayward, CA), washed with 0.5 M sodium phosphate pH 7.0, and dried. After addition of 40 μL scintillant to each well, the incorporation of labeled dATP was determined with a microplate counter (TopCount NXT HTS; PerkinElmer, Shelton, CA, USA).

C#C[C@]1(CO)O[C@@H](n2ccc3c(N)nc(Cl)nc32)C[C@@H]1O [Compound 12, (2R,3S,5R)-5-(4-amino-2-chloro-7H-pyrrolo[2,3-d]pyrimidin-7-yl)-2-ethynyl-2-(hydroxymethyl)tetrahydrofuran-3-ol]
concentration at 72 h ([1]; monkeys, oral 50 mg/kg, 0.25 hr, listed as MK-8527, 50 mg/kg, read-out: Concentration in plasma, individual subjects): 7.22 µM and 1.93 µM and 8.67 µM | concentration at 72 h ([1]; monkeys, oral 50 mg/kg, 0.5 hr, listed as MK-8527, 50 mg/kg, read-out: Concentration in plasma, individual subjects): 11.00 µM and 4.12 µM and 11.10 µM | concentration at 72 h ([1]; monkeys, oral 50 mg/kg, 1 hr, listed as MK-8527, 50 mg/kg, read-out: Concentration in plasma, individual subjects): 29.80 µM and 7.40 µM and 20.20 µM | concentration at 72 h ([1]; monkeys, oral 50 mg/kg, 2 hr, listed as MK-8527, 50 mg/kg, read-out: Concentration in plasma, individual subjects): 30.50 µM and 11.00 µM and 27.80 µM | concentration at 72 h ([1]; monkeys, oral 50 mg/kg, 4 hr, listed as MK-8527, 50 mg/kg, read-out: Concentration in plasma, individual subjects): 15.20 µM and 15.40 µM | concentration at 72 h ([1]; monkeys, oral 50 mg/kg, 6 hr, listed as MK-8527, 50 mg/kg, read-out: Concentration in plasma, individual subjects): 14.30 µM and 9.31 µM | concentration at 72 h ([1]; monkeys, oral 50 mg/kg, 24 hr, listed as MK-8527, 50 mg/kg, read-out: Concentration in plasma, individual subjects): 1.81 µM and 1.27 µM | concentration at 72 h ([1]; monkeys, oral 50 mg/kg, 30 hr, listed as MK-8527, 50 mg/kg, read-out: Concentration in plasma, individual subjects): 0.81 µM and 0.58 µM | concentration at 72 h ([1]; monkeys, oral 50 mg/kg, 48 hr, listed as MK-8527, 50 mg/kg, read-out: Concentration in plasma, individual subjects): 0.31 µM and 0.26 µM and 0.13 µM | concentration at 72 h ([1]; monkeys, oral 50 mg/kg, 72 hr, listed as MK-8527, 50 mg/kg, read-out: Concentration in plasma, individual subjects): 0.07 µM and 0.05 µM | concentration at 72 h ([1]; monkeys, oral 50 mg/kg, 168 hr, listed as MK-8527, 50 mg/kg, read-out: Concentration in plasma, individual subjects): 0.0143 µM and 0.0113 µM and 0.00651 µM | half-life ([1]; rhesus monkey, plasma, iv, 0.5 mg/kg, monkey, plasma, IV 0.5 mg/kg, read-out: t½ (converted)): ~7 h | concentration at 0.25 h ([1]; rhesus monkey, plasma, po, 50 mg/kg, monkeys, oral 50 mg/kg, 0.25 hr, read-out: Arithmetic Mean Concentration in plasma): 4.94 µM | concentration at 0.5 h ([1]; rhesus monkey, plasma, po, 50 mg/kg, monkeys, oral 50 mg/kg, 0.5 hr, read-out: Arithmetic Mean Concentration in plasma): 7.95 µM | concentration at 1 h ([1]; rhesus monkey, plasma, po, 50 mg/kg, monkeys, oral 50 mg/kg, 1 hr, read-out: Arithmetic Mean Concentration in plasma): 16.4 µM | concentration at 30 h ([1]; rhesus monkey, plasma, po, 50 mg/kg, monkeys, oral 50 mg/kg, 30 hr, read-out: Arithmetic Mean Concentration in plasma): 0.79 µM | concentration at 30 h ([1]; rhesus monkey, plasma, po, 50 mg/kg, monkeys, oral 50 mg/kg, 30 hr, read-out: Concentration in plasma, individual subjects): 1.04 µM | concentration at 48 h ([1]; rhesus monkey, plasma, po, 50 mg/kg, monkeys, oral 50 mg/kg, 48 hr, read-out: Arithmetic Mean Concentration in plasma): 0.22 µM | concentration at 72 h ([1]; rhesus monkey, plasma, po, 50 mg/kg, monkeys, oral 50 mg/kg, 72 hr, read-out: Arithmetic Mean Concentration in plasma): 0.07 µM | concentration at 72 h ([1]; rhesus monkey, plasma, po, 50 mg/kg, monkeys, oral 50 mg/kg, 72 hr, read-out: Concentration in plasma, individual subjects): 0.09 µM | concentration at 168 h ([1]; rhesus monkey, plasma, po, 50 mg/kg, monkeys, oral 50 mg/kg, 168 hr, read-out: Arithmetic Mean Concentration in plasma): 0.01 µM | clearance ([1]; rhesus monkey, plasma, monkey, IV 0.5 mg/kg, read-out: CLp): 12.6 ± 3.3 mL/min/kg | Vd ([1]; rhesus monkey, plasma, monkey, IV 0.5 mg/kg, read-out: Vdss): 4.4 ± 0.8 L/kg | bioavailability ([1]; rhesus monkey, plasma, monkey, oral 1 mg/kg): 100% | concentration at 2 h ([1]; rhesus, rhesus monkey, plasma, po, 50 mg/kg, monkeys, oral 50 mg/kg, 2 hr, read-out: Arithmetic Mean Concentration in plasma): 21.1 µM | concentration at 4 h ([1]; rhesus, rhesus monkey, plasma, po, 50 mg/kg, monkeys, oral 50 mg/kg, 4 hr, read-out: Arithmetic Mean Concentration in plasma): 15.8 µM | concentration at 4 h ([1]; rhesus, rhesus monkey, plasma, po, 50 mg/kg, monkeys, oral 50 mg/kg, 4 hr, read-out: Concentration in plasma, individual subjects): 16.9 µM | concentration at 6 h ([1]; rhesus, rhesus monkey, plasma, po, 50 mg/kg, monkeys, oral 50 mg/kg, 6 hr, read-out: Arithmetic Mean Concentration in plasma): 11 µM | concentration at 6 h ([1]; rhesus, rhesus monkey, plasma, po, 50 mg/kg, monkeys, oral 50 mg/kg, 6 hr, read-out: Concentration in plasma, individual subjects): 10.1 µM | concentration at 24 h ([1]; rhesus, rhesus monkey, plasma, po, 50 mg/kg, monkeys, oral 50 mg/kg, 24 hr, read-out: Arithmetic Mean Concentration in plasma): 1.75 µM | concentration at 24 h ([1]; rhesus, rhesus monkey, plasma, po, 50 mg/kg, monkeys, oral 50 mg/kg, 24 hr, read-out: Concentration in plasma, individual subjects): 2.34 µM

C#C[C@]1(COP(=O)(O)OP(=O)(O)OP(=O)(O)O)O[C@@H](n2ccc3c(N)nc(Cl)nc32)C[C@@H]1O [MK-8527-TP]
Translocation state of RT (HIV RT; 1 µM MK-8527-TP or ISL-TP, 5 µM ddATP, absence or presence of dTTP): remained in a pre-translocation (−18) state | dTTP concentration above which post-translocation state products (−17) began accumulating (HIV RT; 1 µM inhibitor): > 6.2 µM | Inhibitory activity (human DNA polymerase β): no inhibitory activity
